Species on record: Rattus norvegicus
Assay: Open TG-GATES - Regimen: Daily Repeat
Type: toxicity, organism-based, Sprague-Dawley
Set-up: regimen Daily Repeat, gender Male, age 6 weeks
Settings: in vivo, po, 0 mg/kg, route gavage, dose level Control; for APTT / Bas / Eos / Fbg / Hb / Ht / Lym / MCH / MCHC / MCV / Mono / Neu / PT / Plat / RBC / Ret / WBC: tissue Blood
[1] = 72 h, tissue Kidney, time 3 day
[2] = 72 h, tissue Plasma, time 3 day

## C=CCO [ALLYL ALCOHOL]
72 h, time 3 day
  TERMINAL_BW: 237.2 g
  APTT: 19.1 s
  Bas: 0%
  Eos: 1%
  Fbg: 221.6 mg/dL
  Hb: 13.4 g/dL
  Ht: 39.6%
  Lym: 79.4%
  MCH: 21 pg
  MCHC: 33.8%
  MCV: 62.1 fL
  Mono: 2.8%
  Neu: 16.6%
  PT: 11.7 s
  Plat: 133.7 x10_4/uL
  RBC: 638 x10_4/ul
  Ret: 5.7%
  WBC: 129.8 x10_2/uL
[1]
  KIDNEY_L: 1 g
  KIDNEY_R: 1 g
  KIDNEY_TOTAL: 2 g
72 h, tissue Liver, time 3 day
  LIVER: 11.1 g
[2]
  A/G: 1.6
  ALP: 952.4 IU/L
  ALT: 38 IU/L
  AST: 65.8 IU/L
  BUN: 16.2 mg/dL
  CRE: 0.4 mg/dL
  Ca: 10.7 mg/dL
  Cl: 103.4 meq/L
  DBIL: 0.088 mg/dL
  GLC: 225.8 mg/dL
  IP: 6.1 mg/dL
  K: 4 meq/L
  LDH: 245.4 IU/L
  Na: 140.8 meq/L
  PL: 148.2 mg/dL
  RALB: 3.4 g/dL
  TBIL: 0.1 mg/dL
  TC: 77.4 mg/dL
  TG: 110.2 mg/dL
  TP: 5.4 g/dL
  gamma-GTP: 0.8 IU/L
[…], time 7 day
  TERMINAL_BW: 272.9 g
  APTT: 20 s
  Bas: 0%
  Eos: 1%
  Fbg: 227.6 mg/dL
  Hb: 13.3 g/dL
  Ht: 38.8%
  Lym: 79.4%
  MCH: 20.9 pg
  MCHC: 34.4%
  MCV: 60.6 fL
  Mono: 3%
  Neu: 16.2%
  PT: 11.9 s
  Plat: 136 x10_4/uL
  RBC: 640.4 x10_4/ul
  Ret: 5%
  WBC: 119.1 x10_2/uL
[…], time 14 day
  TERMINAL_BW: 319.8 g
  APTT: 19.8 s
  Bas: 0%
  Eos: 1%
  Fbg: 229 mg/dL
  Hb: 14.2 g/dL
  Ht: 41%
  Lym: 78.2%
  MCH: 20.2 pg
  MCHC: 34.6%
  MCV: 58.5 fL
  Mono: 2.8%
  Neu: 17.6%
  PT: 12 s
  Plat: 126.7 x10_4/uL
  RBC: 701.8 x10_4/ul
  Ret: 4.1%
  WBC: 144 x10_2/uL
[…], time 28 day
  TERMINAL_BW: 385.1 g
  APTT: 20.9 s
  Bas: 0%
  Eos: 1%
  Fbg: 220.6 mg/dL
  Hb: 15.7 g/dL
  Ht: 45.2%

Reference: ChEMBL document CHEMBL3885861, “Open TG-GATES”
